Results taken from article PMC6718988, “Bioactivity and Bactericidal Mechanism of Histidine-Rich β-Hairpin Peptide Against Gram-Negative Bacteria” (International Journal of Molecular Sciences, 2019).
≈ marks a conversion by molar mass, not a printed value. Where a SMILES comes first, the peptide text is derived from it. [ ]: non-standard residue; d: D form.

Assays:
[1] = test system: Gram-negative bacteria; experiment: MICs against Gram-negative strains (geometric mean, range); format: cell-based; settings: for geometric mean MIC: read-out: MBC (GM), geometric mean of MICs, Gram (−)
Method: (§1) The minimum inhibitory concentration (MIC) was measured using a broth microdilution method to determine the in vitro antimicrobial activity of the peptides. Bacteria were inoculated into MHB and incubated overnight at 37 °C until the bacteria were in log phase growth. Next, we corrected the bacterial concentration to approximately 1 × 10^5 CFU/mL using MHB. The peptides were added to 96-well plates containing 0.01% acetic acid and 0.2% bovine serum albumin at final concentrations ranging from 0.25 to 128 μM. After incubation at 37 °C for 24 h, the absorbance was measured at 492 nm using a microplate reader (Tecan GENios F129004, Tecan, Austria). Broth containing microbes and […] were used as positive and negative controls, respectively. The lowest peptide concentration with no increase in absorbance compared to that of the negative control was defined as the MIC. The experiments were independently performed three times.

[2] = test system: E. coli K88; experiment: microbe, parasite or virus in culture
Method: as §1

[3] = test system: methicillin-resistant S. aureus ATCC43300; experiment: microbe, parasite or virus in culture; settings: ATCC43300, 24 h
Method: as §1

[4] = test system: E. coli UB1005; experiment: microbe, parasite or virus in culture; settings: UB1005, 24 h
Method: as §1

[5] = test system: S. aureus ATCC29213; experiment: microbe, parasite or virus in culture; settings: ATCC29213, 24 h
Method: as §1

[6] = test system: S. epidermidis ATCC12228; experiment: microbe, parasite or virus in culture; settings: ATCC12228, 24 h
Method: as §1

[7] = test system: E. coli K99; experiment: microbe, parasite or virus in culture
Method: as §1

[8] = test system: S. pullorum C7913; experiment: microbe, parasite or virus in culture
Method: as §1

[9] = test system: P. aeruginosa ATCC27853; experiment: microbe, parasite or virus in culture; settings: ATCC27853, 24 h
Method: as §1

[10] = test system: E. coli ATCC25922; experiment: microbe, parasite or virus in culture; settings: ATCC25922, 24 h
Method: as §1

[11] = RP-HPLC retention time as measure of hydrophobicity; format: physicochemical; settings: analytical Kromasil C18 column 4.6 mm × 250 mm, 5.0 μm, acetonitrile, flow 1.0 mL/min, used as measure of hydrophobicity
Method: The hydrophobicities of the peptides in solution were reliably mirrored by their high-performance liquid chromatography (HPLC)retention times. The retention times for peptide HI2, HW2, HV2, HF2, and PG-1 were 11.13, 10.55, 12.20, 18.06 and 12.56 min, respectively, indicating the following hydrophobic order: HF2 > PG-1 > HV2 > HI2 > HW2(Table 1).
The designed peptides were synthesized and purified by GL Biochem (Shanghai, China). Acetonitrile was used on an analytical Kromasil C18 column (4.6 mm × 250 mm, 5.0 μm, LC 3000, Beijing, China), and the purity of the peptides was determined to be greater than 95% via reversed-phase high-performance liquid chromatography (RP-HPLC) with a flow rate of 1.0 mL/min. The experimental molecular weights of the peptides were evaluated via ESI-MS analysis, and these values were very close to the calculated masses. Next, the peptides were dissolved in deionized water at a concentration of 2.56 mM, and the peptide solutions were stored at −20 °C.

[12] = LPS binding assay (BODIPY-TR-cadaverine displacement); design: species or system E. coli; settings: peptide concentration higher than 4 μM; 50 μg/mL LPS, 5 μg/mL BODIPY-TR cadaverine, Tris 50 mM pH 7.4; 100% = 10 μg/mL polymyxin B
Method: The abilities of the antimicrobial peptides to bind LPS were determined using the fluorescent dye BODIPY-TR-cadaverine (BC) substitution method. LPS (50 μg/mL) from E. coli O111:B4 was incubated with BC (5 μg/mL) in Tris buffer (50 mm, pH 7.4) for 4 h. Next, 50 μL of various concentrations of peptides (final concentration of 1–64 μM) and 50 μL of LPS-BC mixture were added to 96-well plates, and the fluorescence was measured using a fluorescence spectrophotometer (Infinite 200 pro, Tecan, China) at an excitation wavelength of 580 nm and an emission wavelength of 620 nm. Each test was performed three times. The values were converted to %∆F (AU) using the following equation:%ΔF (AU) = [(Fobs − F0)/(F100 − F0)] × 100 where Fobs is the fluorescence value measured in the presence of the peptide, F0 is the initial fluorescence of LPS with BC without the addition of peptides, F100 is the fluorescence value produced by adding 10 μg/mL polymyxin B.

[13] = test system: human red blood cells (hRBCs); experiment: Hemolytic activity; settings: 1 h, OD 570 nm
Method: Briefly, collected human red blood cells (hRBCs) were washed three times with PBS (pH 7.4) and diluted to 1% in PBS. Next, equal volumes of blood cells were mixed with different peptide concentrations in 96-well plates followed by incubated at 37 °C for 1 h. The mixtures were centrifuged (1000 g, 5 min), and the supernatants were transferred to 96-well plates to measure the optical density (OD) at 570 nm. Untreated blood cells were used as negative controls, and 0.1% Triton X-100-treated blood cells were used as positive controls. The minimum peptide concentration corresponding to 5% hemolytic activity was defined as the minimal hemolytic concentration (MHC). These assays were independently repeated three times.

[14] = test system: Gram-positive and Gram-negative bacteria; settings: 24 h
Method: as §1

[15] = test system: Gram-positive bacteria; settings: 24 h
Method: as §1

[16] = Salmonella enterica, PULLORUM, 24 h

Question: With CC(C)(O/N=C(\C(=O)N[C@@H]1C(=O)N2C(C(=O)[O-])=C(C[n+]3ccccc3)CS[C@H]12)c1csc(N)n1)C(=O)O [Ceftazidime] as the compound, how does the geometric mean MIC [1] read?
Answer: 1.12 µM

Question: And the MIC ([2]; Escherichia coli, K88, 24 h)?
Answer: 1 µM (≈ 0.547 µg/mL)

Question: And the MIC ([3]; Staphylococcus aureus)?
Answer: 16 µM (≈ 8.75 µg/mL)

Question: And the MIC ([4]; Escherichia coli)?
Answer: 1 µM (≈ 0.547 µg/mL)

Question: And the MIC ([5]; Staphylococcus aureus)?
Answer: 16 µM (≈ 8.75 µg/mL)

Question: And the MIC ([6]; Staphylococcus epidermidis)?
Answer: 16 µM (≈ 8.75 µg/mL)

Question: What about the MIC ([7]; Escherichia coli, K99, 24 h) of the same compound?
Answer: 0.5 µM (≈ 0.273 µg/mL)

Question: And the MIC [8, 16]?
Answer: 1 µM (≈ 0.547 µg/mL)

Question: What about the MIC ([9]; Pseudomonas aeruginosa) of the same compound?
Answer: 2 µM (≈ 1.09 µg/mL)

Question: What about the MIC ([10]; Escherichia coli) of the same compound?
Answer: 2 µM (≈ 1.09 µg/mL)

Question: Which geometric mean MIC [1] does the source give for CNC(C)C1CCC(N)C(OC2C(N)CC(N)C(OC3OCC(C)(O)C(NC)C3O)C2O)O1 (stereo not drawn) [Gentamicin] here?
Answer: 0.79 µM

Question: And the MIC ([2]; Escherichia coli, K88, 24 h)?
Answer: 1 µM (≈ 0.478 µg/mL)

Question: What about the MIC ([3]; Staphylococcus aureus) of the same compound?
Answer: 8 µM (≈ 3.82 µg/mL)

Question: And the MIC ([4]; Escherichia coli)?
Answer: 0.5 µM (≈ 0.239 µg/mL)

Question: What about the MIC ([5]; Staphylococcus aureus) of the same compound?
Answer: 1 µM (≈ 0.478 µg/mL)

Question: And the MIC ([6]; Staphylococcus epidermidis)?
Answer: 1 µM (≈ 0.478 µg/mL)

Question: What about the MIC ([7]; Escherichia coli, K99, 24 h) of the same compound?
Answer: 0.5 µM (≈ 0.239 µg/mL)

Question: And the MIC [8, 16]?
Answer: 1 µM (≈ 0.478 µg/mL)

Question: What about the MIC ([9]; Pseudomonas aeruginosa) of the same compound?
Answer: 1 µM (≈ 0.478 µg/mL)

Question: What about the MIC ([10]; Escherichia coli) of the same compound?
Answer: 1 µM (≈ 0.478 µg/mL)

Question: With N=C(N)NCCC[C@H](NC(=O)[C@H](CCCNC(=N)N)NC(=O)[C@H](Cc1ccccc1)NC(=O)[C@H](Cc1c[nH]cn1)NC(=O)[C@H](Cc1ccccc1)NC(=O)[C@H](Cc1c[nH]cn1)NC(=O)[C@H](Cc1ccccc1)NC(=O)CNC(=O)[C@H]1CCCN1C(=O)[C@H](Cc1ccccc1)NC(=O)[C@H](Cc1c[nH]cn1)NC(=O)[C@H](Cc1ccccc1)NC(=O)[C@H](Cc1c[nH]cn1)NC(=O)[C@H](Cc1ccccc1)NC(=O)[C@H](CCCNC(=N)N)NC(=O)[C@@H](N)CCCNC(=N)N)C(N)=O [HF2] (H-RRFHFHF[dP]GFHFHFRR-NH2; N-terminus assumed) as the compound, how does the “MBC (GM), geometric mean of MICs, Gram (−)” value ([1]; Gram-negative strains, 256 μM used where no activity at 128 μM) read?
Answer: 8.00 µM

Question: And the “Retention Time” value [11]?
Answer: 18.06 min

Question: And the “LPS binding ability relative to binding activity of polymyxin B” value [12]?
Answer: higher than 60%

Question: And the MIC ([2]; E. coli K88, MHB, about 1 × 10^5 CFU/mL, 37 °C, 24 h, three independent experiments)?
Answer: 2 µM (≈ 4.46 µg/mL)

Question: And the MIC [3]?
Answer: 4 µM (≈ 8.91 µg/mL)

Question: What about the MIC [4] of the same compound?
Answer: 8 µM (≈ 17.8 µg/mL)

Question: And the MIC [5]?
Answer: 64 µM (≈ 143 µg/mL)

Question: What about the MIC [6] of the same compound?
Answer: 4 µM (≈ 8.91 µg/mL)

Question: And the MIC ([7]; E. coli K99, MHB, about 1 × 10^5 CFU/mL, 37 °C, 24 h, three independent experiments)?
Answer: 4 µM (≈ 8.91 µg/mL)

Question: And the MIC ([8]; C7913, 24 h)?
Answer: 4 µM (≈ 8.91 µg/mL)

Question: And the MIC [9]?
Answer: >128 µM

Question: What about the MIC [10] of the same compound?
Answer: 4 µM (≈ 8.91 µg/mL)

Question: What about the hemolysis rate ([13]; at the highest concentration (128 μM), 1% hRBC in PBS, 37 °C, 0.1% Triton X-100 positive control) of the same compound?
Answer: 30.46%

Question: And the “MHC, minimum hemolytic concentration” value ([13]; concentration causing 5% hemolysis of hRBC, 1% hRBC in PBS pH 7.4, 37 °C, repeated three times)?
Answer: 16 µM

Question: And the “MBC (GM), geometric mean of MICs, Gram (+,−)” value [14]?
Answer: 8.64 µM

Question: And the “MBC (GM), geometric mean of MICs, Gram (+)” value [15]?
Answer: 10.08 µM
